# Test results: patent publication US20160130278A1 (TAISHO PHARMACEUTICAL CO., LTD, priority 2013, published 2016)
# Target: T1, human type 1 glycine transporter (GlyT1) (Homo sapiens, UniProt P48067)
# T1 construct: T98G cells (glioma cells) expressing human type 1 glycine transporter (GlyT1) were used
# T1 sequence (P48067 1-706): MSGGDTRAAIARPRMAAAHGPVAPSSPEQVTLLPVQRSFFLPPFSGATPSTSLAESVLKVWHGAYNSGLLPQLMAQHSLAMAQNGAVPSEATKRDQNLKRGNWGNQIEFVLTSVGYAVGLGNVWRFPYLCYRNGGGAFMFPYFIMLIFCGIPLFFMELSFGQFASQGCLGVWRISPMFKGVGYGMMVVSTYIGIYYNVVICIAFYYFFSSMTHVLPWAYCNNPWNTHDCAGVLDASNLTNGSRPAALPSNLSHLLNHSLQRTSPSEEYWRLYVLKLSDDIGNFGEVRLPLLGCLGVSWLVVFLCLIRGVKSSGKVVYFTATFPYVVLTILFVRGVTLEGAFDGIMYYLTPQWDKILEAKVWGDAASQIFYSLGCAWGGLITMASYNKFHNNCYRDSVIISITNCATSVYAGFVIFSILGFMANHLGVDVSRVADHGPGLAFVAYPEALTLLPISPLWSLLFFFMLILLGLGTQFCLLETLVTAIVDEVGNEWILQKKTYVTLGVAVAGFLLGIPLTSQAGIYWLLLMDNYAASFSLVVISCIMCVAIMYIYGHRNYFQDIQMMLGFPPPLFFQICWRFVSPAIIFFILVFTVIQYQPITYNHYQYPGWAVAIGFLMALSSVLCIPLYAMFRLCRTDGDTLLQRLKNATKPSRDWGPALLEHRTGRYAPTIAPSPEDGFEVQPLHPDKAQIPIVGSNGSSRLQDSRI
# Experiment: Glycine uptake inhibition experiment ([3H]glycine uptake)
# Type: cell-based
# Settings: GlyT1
# Procedure, shortened: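 T98G glioma cells expressing human GlyT1 were pretreated 10 min with compound in HEPES buffer pH 7.4 (0.2% BSA), then incubated with compound plus 250 nM final [3H]glycine for 15 min at room temperature. Intracellular radioactivity was counted after NaOH lysis; 10 μM ALX5407 defined non-specific uptake. IC50 came from 10^−9–10^−5 M curves.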
row,SMILES,IC50 [nM]
1,"O=C(NC(c1cccnc1Cl)C1(O)CCC(F)(F)CC1)c1cc(C(F)(F)F)ncc1Cl (single isomer, unassigned) [Compound 342, 5-chloro-N-[(2-chloropyridin-3-yl)(4,4-difluoro-1-hydroxycyclohexyl)methyl]-2-(trifluoromethyl)pyridine-4-carboxamide]",1200
2,"O=C(NC(c1cccnc1Cl)C1(O)CCC(F)(F)CC1)c1ccc(C(F)(F)F)nc1Cl (single isomer, unassigned) [Compound 344, 2-chloro-N-[(2-chloropyridin-3-yl)(4,4-difluroo-1-hydroxycyclohexyl)methyl]-6-(trifluoromethyl)pyridine-3-carboxamide]",2300
3,"O=C(NC(c1cc(Cl)ccn1)C1(O)CCC(F)(F)CC1)c1nccc(C(F)(F)F)c1Cl (single isomer, unassigned) [Compound 345, 3-chloro-N-[(4-chloropyridin-2-yl)(4,4-difluoro-1-hydroxycyclohexyl)methyl]-4-(trifluoromethyl)pyridine-2-carboxamide]",270
4,"O=C(NC(c1cc(Cl)ccn1)C1(O)CCC(F)(F)CC1)c1ccnc(C(F)(F)F)c1Cl (single isomer, unassigned) [Compound 346, 3-chloro-N-[(4-chloropyridin-2-yl)(4,4-difluoro-1-hydroxycyclohexyl)methyl]-2-(trifluoromethyl)pyridine-4-carboxamide]",360
5,"O=C(NC(c1cccc(Cl)n1)C1(O)CCC(F)(F)CC1)c1ccnc(C(F)(F)F)c1Cl (single isomer, unassigned) [Compound 347, 3-chloro-N-[(6-chloropyridin-2-yl)(4,4-difluoro-1-hydroxycyclohexyl)methyl]-2-(trifluoromethyl)pyridine-4-carboxamide]",380
6,"O=C(NC(c1cc(Cl)ccn1)C1(O)CCC(F)(F)CC1)c1cc(C(F)(F)F)ncc1Cl (single isomer, unassigned) [Compound 348, 5-chloro-N-[(4-chloropyridin-2-yl)(4,4-difluoro-1-hydroxycyclohexyl)methyl]-2-(trifluoromethyl)pyridine-4-carboxamide]",490
7,"O=C(NC(c1cc(Cl)ccn1)C1(O)CCC(F)(F)CC1)c1nccc2ccccc12 (single isomer, unassigned) [Compound 349, N-[(4-chloropyridin-2-yl)(4,4-difluoro-1-hydroxycyclohexyl)methyl]isoquinoline-1-carboxamide]",1100
8,"O=C(NC(c1cc(Cl)ccn1)C1(O)CCC(F)(F)CC1)c1ccc(C(F)(F)F)nc1Cl (single isomer, unassigned) [Compound 350, 2-chloro-N-[(4-chloropyridin-2-yl)(4,4-difluoro-1-hydroxycyclohexyl)methyl]-6-(trifluoromethyl)pyridine-3-carboxamide]",620
9,"O=C(NC(c1cc(Cl)ccn1)C1(O)CCC(F)(F)CC1)c1cccc(C(F)(F)F)c1Cl (single isomer, unassigned) [Compound 351, 2-chloro-N-[(4-chloropyridin-2-yl)(4,4-difluoro-1-hydroxycyclohexyl)methyl]-3-(trifluoromethyl)benzamide]",150
10,"O=C(NC(c1cccc(Cl)n1)C1(O)CCC(F)(F)CC1)c1cccc(C(F)(F)F)c1Cl (single isomer, unassigned) [Compound 352, 2-chloro-N-[(6-chloropyridin-2-yl)(4,4-difluoro-1-hydroxycyclohexyl)methyl]-3-(trifluoromethyl)benzamide]",150
11,"O=C(NC(c1cccc(Cl)n1)C1(O)CCC(F)(F)CC1)c1cc(C(F)(F)F)ncc1Cl (single isomer, unassigned) [Compound 353, 5-chloro-N-[(6-chloropyridin-2-yl)(4,4-difluoro-1-hydroxycyclohexyl)methyl]-2-(trifluoromethyl)pyridine-4-carboxamide]",150
12,"O=C(NC(c1cccc(Cl)n1)C1(O)CCC(F)(F)CC1)c1cc(C(F)(F)F)cnc1Cl (single isomer, unassigned) [Compound 354, 2-chloro-N-[(6-chloropyridin-2-yl)(4,4-difluoro-1-hydroxycyclohexyl)methyl]-5-(trifluoromethyl)pyridine-3-carboxamide]",220
13,"O=C(NC(c1cccc(Cl)n1)C1(O)CCC(F)(F)CC1)c1nccc2ccccc12 (single isomer, unassigned) [Compound 355, N-[(6-chloropyridin-2-yl)(4,4-difluoro-1-hydroxycyclohexyl)methyl]isoquinoline-1-carboxamide]",130
14,"O=C(NC(c1cccc(Cl)n1)C1(O)CCC(F)(F)CC1)c1ccc(C(F)(F)F)nc1Cl (single isomer, unassigned) [Compound 356, 2-chloro-N-[(6-chloropyridin-2-yl)(4,4-difluoro-1-hydroxycyclohexyl)methyl]-6-(trifluoromethyl)pyridine-3-carboxamide]",250
15,"O=C(NC(c1cccnc1Cl)C1(O)CCC(F)(F)CC1)c1cccc(C(F)(F)F)c1Cl (single isomer, unassigned) [Compound 357, 2-chloro-N-[(2-chloropyridin-3-yl)(4,4-difluoro-1-hydroxycyclohexyl)methyl]-3-(trifluoromethyl)benzamide]",330
16,"O=C(NC(c1cccc(F)n1)C1(O)CCC(F)(F)CC1)c1nccc(C(F)(F)F)c1Cl (single isomer, unassigned) [Compound 358, 3-chloro-N-[(4,4-difluoro-1-hydroxycyclohexyl)(6-fluoropyridin-2-yl)methyl]-4-(trifluoromethyl)pyridine-2-carboxamide]",150
17,"O=C(NC(c1cccc(F)n1)C1(O)CCC(F)(F)CC1)c1ccnc(C(F)(F)F)c1Cl (single isomer, unassigned) [Compound 359, 3-chloro-N-[(4,4-difluoro-1-hydroxycyclohexyl)(6-fluoropyridin-2-yl)methyl]-2-(trifluoromethyl)pyridine-4-carboxamide]",250
18,"O=C(NC(c1cc(Cl)ccn1)C1(O)CCC(F)(F)CC1)c1cc(C(F)(F)F)cnc1Cl (single isomer, unassigned) [Compound 360, 2-chloro-N-[(4-chloropyridin-2-yl)(4,4-difluoro-1-hydroxycyclohexyl)methyl]-5-(trifluoromethyl)pyridine-3-carboxamide]",520
19,"O=C(NC(c1ncccc1Cl)[C@]1(O)CC[C@@H](F)CC1)c1nccc(C(F)(F)F)c1Cl (single isomer, unassigned) [Compound 361, 3-chloro-N-[(3-chloropyridin-2-yl)(cis-4-fluoro-1-hydroxycyclohexyl)methyl]-4-(trifluoromethyl)pyridine-2-carboxamide]",300
20,"O=C(NC(c1cccc(Cl)n1)[C@]1(O)CC[C@@H](F)CC1)c1cc(C(F)(F)F)ccc1Cl (single isomer, unassigned) [Compound 362]",190
21,"O=C(NC(c1cccc(Cl)n1)[C@]1(O)CC[C@@H](F)CC1)c1ccc(C(F)(F)F)cc1Cl (single isomer, unassigned) [Compound 363, 2-chloro-N-[(6-chloropyridin-2-yl)(cis-4-fluoro-1-hydroxycyclohexyl)methyl]-4-(trifluoromethyl)benzamide]",240
